From US10865216B2, “Tricyclic Gyrase inhibitors” (MERCK SHARP & DOHME CORP., priority 2012, dated 2020)
In brackets after ≈: the same amount, converted by molar mass.

test system: E. coli ATCC 25922; assay: MIC, E. coli ATCC 25922; assay type: cell-based; details: Escherichia coli, ATCC25922, E. coli; Alamar Blue read after overnight incubation at 35° C.; read-out: MIC Ec

Structure (SMILES)	MIC [µg/mL]
CNc1cccc2c1[nH]c1nc(Oc3cnc(C)nc3)cc(N3C[C@@H](NC)C4(CC4)C3)c12 [Compound 3.48]	8 (≈ 18.6 µM)
CNc1cccc2c1[nH]c1nc(Sc3cnc4cccnc4c3)nc(N3C[C@@H](N)C[C@H]3C)c12 [Compound 1.60]	2 (≈ 4.38 µM)
CNc1cccc2c1[nH]c1nc(Sc3cnc4cccnc4c3)nc(N3CCC[C@@H](N)C3)c12 [Compound 1.37]	4 (≈ 8.76 µM)
CNc1ncnc2c1[nH]c1nc(-c3cncnc3)nc(N3CC4C(N)C4C3)c12 (centres unmarked) [Compound 7.11]	> 64
CNc1cccc2c1[nH]c1nc(Oc3cncnc3)cc(N3CC4C(C3)C4NC(=O)CN)c12 (centres unmarked) [Compound 3.18]	> 16
CNc1cccc2c1[nH]c1nc(Oc3cncc(C#N)c3)cc(N3CC4C(N)C4C3)c12 (centres unmarked) [Compound 3.27]	4 (≈ 9.72 µM)
CNc1cccc2c1[nH]c1nc(Sc3cnc4cccnc4c3)nc(N3CC4C(N)C4C3)c12 (centres unmarked) [Compound 1.12]	1 (≈ 2.2 µM)
CNc1ncnc2c1[nH]c1nc(Oc3cnc(C)nc3)nc(N3CC(N)C4(CC4)C3)c12 (centres unmarked) [Compound 7.08]	> 64
CNc1cccc2c1[nH]c1nc(Sc3cnc4ccc[n+]([O-])c4c3)nc(N3CCC[C@@H](N)C3)c12 [Compound 1.34]	4 (≈ 8.46 µM)
CNc1cccc2c1[nH]c1nc(Sc3cnc4ccc[n+]([O-])c4c3)nc(N3CCC4(CC4N)C3)c12 (centres unmarked) [Compound 1.38]	2 (≈ 4.13 µM)
CCNc1cccc2c1[nH]c1nc(Sc3cnc4ccc[n+]([O-])c4c3)nc(N3CC4C(N)C4C3)c12 (centres unmarked) [Compound 1.10]	4 (≈ 8.25 µM)
CNc1cccc2c1[nH]c1nc(Oc3cncnc3)cc(N3C[C@@H]4CNC[C@H]4C3)c12 [Compound 3.61]	16 (≈ 39.9 µM)
COc1nccc2c1[nH]c1nc(Sc3cnc4cccnc4c3)nc(N3CC4C(N)C4C3)c12 (centres unmarked) [Compound 7.03]	> 64
CNc1ncnc2c1[nH]c1nc(Oc3cncc(F)c3)nc(N3CC4C(N)C4C3)c12 (centres unmarked) [Compound 7.04]	32 (≈ 78.5 µM)
CNc1cccc2c1[nH]c1nc(Oc3cncnc3)cc(N3CCC4(CNC4)C3)c12 [Compound 3.65]	64 (≈ 159 µM)

same assay, conditions: Table 11; L = CH2; EC8 not defined

Structure (SMILES)	EC8 MIC [µg/mL]
CNc1cc(F)cc2c1[nH]c1nc(Cc3cnc(C)nc3)nc(N3CC4CC(N)C4C3)c12 (centres unmarked)	1

same assay, conditions: Table 13; L = NH

Structure (SMILES)	EC MIC [µg/mL]
CNc1cc(F)cc2c1[nH]c1nc(Nc3cnc4nccnc4c3)nc(N3C[C@H]4CC3C[C@H]4N)c12	16

same assay, conditions: Table 18, Ec

Structure (SMILES)	MIC Ec [µg/mL]
CNc1cc(F)cc2c1[nH]c1nc(Oc3cnc([C@@H](C)O)nc3)nc(N3CCOCC3)c12 [Compound 10.116]	≤ 0.5
CNc1cc(F)cc2c1[nH]c1nc(Oc3cnc4c(C)cnn4c3)nc(N3CC4C(N)C4C3)c12 (centres unmarked) [Compound 10.40]	≤ 0.5
CNc1cc(F)c(F)c2c1[nH]c1nc(Oc3cnc(C)nc3)nc(N3CC4NCC[C@@H]4C3)c12 (some centres unmarked) [Compound 10.32]	≤ 0.5
CNc1cc(F)cc2c1[nH]c1nc(Oc3cnc4c(c3)C(=O)N(C)C4O)nc(N3C[C@H]4C[C@@H]3C[C@H]4N)c12 (some centres unmarked) [Compound 10.108]	> 16
CNc1cc(F)c(Cl)c2c1[nH]c1nc(Oc3cnc([C@@H](C)O)nc3)nc(N3C[C@H]4C[C@@H]3C[C@H]4N)c12 [Compound 10.87]	≤ 0.5
CNc1cc(F)c(F)c2c1[nH]c1nc(Oc3cnc(C)nc3)nc(N3CCC(S(N)(=O)=O)C3)c12 (centres unmarked) [Compound 10.106]	2 (≈ 4.08 µM)
CNc1cc(F)c(F)c2c1[nH]c1nc(Oc3cnc(C(C)O)nc3)nc(N3CC4(CCCC4N)C3)c12 (centres unmarked) [Compound 10.103]	≤ 0.5
CNc1cc(F)cc2c1[nH]c1nc(Oc3cnc(C(C)O)nc3)nc(N3CC4CC(C3)C4N)c12 (centres unmarked) [Compound 10.82]	0.5 (≈ 1.08 µM)
CNc1cc(F)cc2c1[nH]c1nc(Oc3cnc(C(C)O)c(Cl)c3)nc(N3CC4CCNC4C3)c12 (centres unmarked) [Compound 10.16]	≤ 0.5
CNc1cc(F)cc2c1[nH]c1nc(Oc3cnc(C(C)O)nc3)nc(N3C[C@@H]4[C@H](N)C(F)[C@@H]4C3)c12 (some centres unmarked) [Compound 10.63]	≤ 0.5
CNc1cc(F)cc2c1[nH]c1nc(Nc3cnc4c(c3)nnn4C(C)C)nc(N3C[C@H]4C[C@@H]3C[C@H]4N)c12 [Compound 10.43]	1 (≈ 1.99 µM)

test system: S. aureus ATCC 13709; assay: MIC, S. aureus ATCC 13709; assay type: cell-based; details: Staphylococcus aureus, ATCC13709, S. aureus; Alamar Blue read after overnight incubation at 35° C.; read-out: MIC Sa

Structure (SMILES)	MIC [µg/mL]
CNc1cccc2c1[nH]c1nc(Oc3cnc(C)nc3)cc(N3C[C@@H](NC)C4(CC4)C3)c12 [Compound 3.48]	2 (≈ 4.66 µM)
CNc1cccc2c1[nH]c1nc(Sc3cnc4cccnc4c3)nc(N3C[C@@H](N)C[C@H]3C)c12 [Compound 1.60]	0.5 (≈ 1.1 µM)
CNc1cccc2c1[nH]c1nc(Sc3cnc4cccnc4c3)nc(N3CCC[C@@H](N)C3)c12 [Compound 1.37]	1 (≈ 2.19 µM)
CNc1ncnc2c1[nH]c1nc(-c3cncnc3)nc(N3CC4C(N)C4C3)c12 (centres unmarked) [Compound 7.11]	> 64
CNc1cccc2c1[nH]c1nc(Oc3cncnc3)cc(N3CC4C(C3)C4NC(=O)CN)c12 (centres unmarked) [Compound 3.18]	4 (≈ 9 µM)
CNc1cccc2c1[nH]c1nc(Oc3cncc(C#N)c3)cc(N3CC4C(N)C4C3)c12 (centres unmarked) [Compound 3.27]	1 (≈ 2.43 µM)
CNc1cccc2c1[nH]c1nc(Sc3cnc4cccnc4c3)nc(N3CC4C(N)C4C3)c12 (centres unmarked) [Compound 1.12]	≤ 0.5
CNc1ncnc2c1[nH]c1nc(Oc3cnc(C)nc3)nc(N3CC(N)C4(CC4)C3)c12 (centres unmarked) [Compound 7.08]	16 (≈ 38.2 µM)
CNc1cccc2c1[nH]c1nc(Sc3cnc4ccc[n+]([O-])c4c3)nc(N3CCC[C@@H](N)C3)c12 [Compound 1.34]	1 (≈ 2.12 µM)
CNc1cccc2c1[nH]c1nc(Sc3cnc4ccc[n+]([O-])c4c3)nc(N3CCC4(CC4N)C3)c12 (centres unmarked) [Compound 1.38]	≤ 0.5
CCNc1cccc2c1[nH]c1nc(Sc3cnc4ccc[n+]([O-])c4c3)nc(N3CC4C(N)C4C3)c12 (centres unmarked) [Compound 1.10]	≤ 0.5
CNc1cccc2c1[nH]c1nc(Oc3cncnc3)cc(N3C[C@@H]4CNC[C@H]4C3)c12 [Compound 3.61]	4 (≈ 9.96 µM)
COc1nccc2c1[nH]c1nc(Sc3cnc4cccnc4c3)nc(N3CC4C(N)C4C3)c12 (centres unmarked) [Compound 7.03]	2 (≈ 4.38 µM)
CNc1ncnc2c1[nH]c1nc(Oc3cncc(F)c3)nc(N3CC4C(N)C4C3)c12 (centres unmarked) [Compound 7.04]	8 (≈ 19.6 µM)
CNc1cccc2c1[nH]c1nc(Oc3cncnc3)cc(N3CCC4(CNC4)C3)c12 [Compound 3.65]	8 (≈ 19.9 µM)

same assay, conditions: Table 11; compounds wherein L = CH2

Structure (SMILES)	SA MIC [µg/mL]
CNc1cc(F)cc2c1[nH]c1nc(Cc3cnc(C)nc3)nc(N3CC4CC(N)C4C3)c12 (centres unmarked)	≤ 0.5

same assay, conditions: Table 13; L = NH

Structure (SMILES)	SA MIC [µg/mL]
CNc1cc(F)cc2c1[nH]c1nc(Nc3cnc4nccnc4c3)nc(N3C[C@H]4CC3C[C@H]4N)c12	≤ 0.5

same assay, conditions: Table 18, Sa

Structure (SMILES)	MIC Sa [µg/mL]
CNc1cc(F)cc2c1[nH]c1nc(Oc3cnc([C@@H](C)O)nc3)nc(N3CCOCC3)c12 [Compound 10.116]	≤ 0.5
CNc1cc(F)cc2c1[nH]c1nc(Oc3cnc4c(C)cnn4c3)nc(N3CC4C(N)C4C3)c12 (centres unmarked) [Compound 10.40]	≤ 0.5
CNc1cc(F)c(F)c2c1[nH]c1nc(Oc3cnc(C)nc3)nc(N3CC4NCC[C@@H]4C3)c12 (some centres unmarked) [Compound 10.32]	≤ 0.5
CNc1cc(F)cc2c1[nH]c1nc(Oc3cnc4c(c3)C(=O)N(C)C4O)nc(N3C[C@H]4C[C@@H]3C[C@H]4N)c12 (some centres unmarked) [Compound 10.108]	≤ 0.5
CNc1cc(F)c(Cl)c2c1[nH]c1nc(Oc3cnc([C@@H](C)O)nc3)nc(N3C[C@H]4C[C@@H]3C[C@H]4N)c12 [Compound 10.87]	≤ 0.5
CNc1cc(F)c(F)c2c1[nH]c1nc(Oc3cnc(C)nc3)nc(N3CCC(S(N)(=O)=O)C3)c12 (centres unmarked) [Compound 10.106]	≤ 0.5
CNc1cc(F)c(F)c2c1[nH]c1nc(Oc3cnc(C(C)O)nc3)nc(N3CC4(CCCC4N)C3)c12 (centres unmarked) [Compound 10.103]	≤ 0.5
CNc1cc(F)cc2c1[nH]c1nc(Oc3cnc(C(C)O)nc3)nc(N3CC4CC(C3)C4N)c12 (centres unmarked) [Compound 10.82]	0.13 (≈ 0.28 µM)
CNc1cc(F)cc2c1[nH]c1nc(Oc3cnc(C(C)O)c(Cl)c3)nc(N3CC4CCNC4C3)c12 (centres unmarked) [Compound 10.16]	≤ 0.5
CNc1cc(F)cc2c1[nH]c1nc(Oc3cnc(C(C)O)nc3)nc(N3C[C@@H]4[C@H](N)C(F)[C@@H]4C3)c12 (some centres unmarked) [Compound 10.63]	≤ 0.5
CNc1cc(F)cc2c1[nH]c1nc(Nc3cnc4c(c3)nnn4C(C)C)nc(N3C[C@H]4C[C@@H]3C[C@H]4N)c12 [Compound 10.43]	≤ 0.5
